Assays:
[1] = system: patients with Rheumatoid Arthritis; conditions: compared with methotrexate; cited from earlier work
[2] = system: Human HCT-8 Colon Xenograft; assay: Antitumor activity in nude mice bearing human HCT-8 colon xenograft (Example-4); assay type: in vivo; conditions: i.v. push daily × 5 at maximum tolerated dose (M-Trex 4.0, MTX 1.0 mg/kg/day)
Excerpt: There are three general accepted methods for the evaluation of Pain in patients suffering from a number of diseases. They are Visual Analog Scale (VAS); Numeric rating Scale (NRS) and Verbal Categorical Rating Scale […]. Of these three assessment methods VAS is considered to be most reliable in a majority of cases to evaluate and quantify the magnitude of the perception of Pain. Clinical trials conducted by Castaneda and Nair used VAS to assess pain intensity in RA patients receiving 10-DAAM in one trial [G. Alarcon, O. Castaneda, W. J. Koopman, C. L. Krumdieck, and M. G. Nair. U.S. Pat. No. 5,030,634 (1991)] and M-Trex (CH-1504) in another trial conducted separately. Almost all cases of cancer Pain is due to tissue inflammation, tissue compression and tissue damage secondary to rapid proliferation of cells. Therefore any therapeutic intervention that shrinks proliferating tissues can bring about significant reduction in Pain. Shown below is the efficacy of M-Trex in shrinking human colon cancer transplanted and growing in nude mice.

[3] = Toxicity (maximum tolerated dose, weight loss) in nude mice bearing HCT-8 xenograft; assay type: in vivo; conditions: i.v. push daily × 5 in nude mice
human tumor cell lines = conditions: all 49 human tumor cell lines evaluated at NCI-DTP program; cited from earlier work
SF 539 (CNS Cancer) = assay: Growth inhibition of human tumor cells in culture (NCI); assay type: cell-based; conditions: logarithmic value
Excerpt: (§1) The preceding data collected at the National Cancer Institute summarize the ability of M-Trex to inhibit 50% of the growth of selected tumor cells in culture. The values are expressed as Log10 GI50 values all of which are lower than 10^−8M. In the same table a comparison is made of the respective values of TGI (Total Growth Inhibition) for M-Trex and MTX. […] In addition, the Log10 GI50 values of M-Trex was lower than −8.00 for the following cell lines: NSCLC, A549/ATCC and NCI H23; Colon Cancer, HCT 116, HCT 29 and SW 620; CNS Cancer, SF 268; Melanoma M 14 and UACC 62; Ovarian Cancer, OVCAR-8; Renal Cancer, ACHN, CAKI-1, SN 12C, and UO 31; Prostate Cancer, PC 3 and Breast cancer, MDA-MB-435 and MDA-N. The MG_MID value of MTX for all 49 human tumor cell lines evaluated at NCI-DTP program was −7.05. […] The tumors and sarcomas are solid while leukemia and lymphoma are liquid tumors.

RPMI 8226 (Leukemia) = assay: as above; assay type: cell-based; conditions: logarithmic value
Excerpt: as §1

K562 (Leukemia) = assay: as above; assay type: cell-based; conditions: logarithmic value
Excerpt: as §1

SR (Leukemia) = assay: as above; assay type: cell-based; conditions: logarithmic value
Excerpt: as §1

MOLT-4 (Leukemia) = assay: as above; assay type: cell-based; conditions: logarithmic value
Excerpt: as §1

CCRF-CEM (Leukemia) = assay: as above; assay type: cell-based; conditions: logarithmic value
Excerpt: as §1

Allergic Rabbits = conditions: allergen induced; cited from earlier work

Row | SMILES | Pain reduction (in words) [1] | MTGI, Maximum Tumor Growth Inhibition (% of control) ([2]; nude mice, HCT-8 xenograft) | Tumor doubling time, treated/control (%) ([2]; nude mice, HCT-8 xenograft) | TD, Tumor Doubling Time ([2]; control 2.6 ± 0.8 days) | Maximum Tolerated dose [3] | MG_MID value (human tumor cell lines) | TGI (Total Growth Inhibition) (SF 539 (CNS Cancer)) | TGI (Total Growth Inhibition) (RPMI 8226 (Leukemia)) | TGI (Total Growth Inhibition) (K562 (Leukemia)) | TGI (Total Growth Inhibition) (SR (Leukemia)) | TGI (Total Growth Inhibition) (MOLT-4 (Leukemia)) | TGI (Total Growth Inhibition) (CCRF-CEM (Leukemia)) | Asthmatic Response Early (Allergic Rabbits) | Asthmatic Response Late (Allergic Rabbits) | BHR (Bronchial Hyper-Responsiveness) (Allergic Rabbits)
1 | Nc1nc(N)c2nc(CCc3ccc(C(=O)N[C@@H](CCC(=O)O)C(=O)O)cc3)cnc2n1 [10-DAAM, 10-Deazaaminopterin] | very effective in reducing Pain |  |  |  |  |  |  |  |  |  |  |  |  |  | 
2 | CN(Cc1cnc2nc(N)nc(N)c2n1)c1ccc(C(=O)N[C@@H](CCC(=O)O)C(=O)O)cc1 [MTX, methotrexate, reference compound] |  | 30.0 ± 9.0% | 176.92% | 4.6 ± 0.6 days | MTX (1.0 mg/kg/day)^33 | −7.05 | −3.66 | −3.66 | −3.30 | −3.50 | −3.55 | −3.77 | 29 | 37 | 32
3 | Cn1c(=O)c2[nH]cnc2n(C)c1=O [Theophylline] |  |  |  |  |  |  |  |  |  |  |  |  | 45 | 49 | 39
